Several values for one entry are separate records, joined by “and”; a condition that tells them apart may be missing. Equal entries are not always repeated. Toxic doses and inconclusive results are not listed. The calls were made as follows: active = survival T/C of 150% or more; inactive = T/C below 125% in these data.
Test system: CD2F1 mice, L1210 leukemia ip, survival T/C
Assay: NCI In Vivo Anticancer Drug Screen. Data for tumor model L1210 Leukemia (intraperitoneal) in CD2F1 (CDF1) mice
Settings: higher = longer survival
Outline: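 Mice carrying a transplanted tumor received test compound or vehicle alone. The value is the measurement in the treated group divided by that in the vehicle-treated control group.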

[1] = endpoint: mean survival time, dose: 100.0 mg/kg/injection, schedule: Q04DX003 (ip), vehicle: saline
[2] = endpoint: mean survival time, dose: 200.0 mg/kg/injection, schedule: Q04DX003 (ip), vehicle: saline
[3] = endpoint: mean survival time, dose: 400.0 mg/kg/injection, schedule: Q04DX003 (ip), vehicle: saline
[4] = endpoint: mean survival time, dose: 100.0 mg/kg/injection, schedule: Q04DX003 (ip), vehicle: saline with Tween-80
[5] = endpoint: mean survival time, dose: 12.5 mg/kg/injection, schedule: Q01DX009 (ip), vehicle: water
[6] = endpoint: mean survival time, dose: 25.0 mg/kg/injection, schedule: Q01DX009 (ip), vehicle: water
[7] = endpoint: mean survival time, dose: 50.0 mg/kg/injection, schedule: Q01DX009 (ip), vehicle: water
[8] = endpoint: mean survival time, dose: 100.0 mg/kg/injection, schedule: Q01DX009 (ip), vehicle: water

Measured: T/C

c1ccc(CCSc2ncnc3nc[nH]c23)cc1
inactive: endpoint: mean survival time, dose: 100.0 mg/kg/injection, schedule: Q01DX007 (ip), vehicle: saline 103 % of control | endpoint: mean survival time, dose: 100.0 mg/kg/injection, schedule: Q01DX009 (ip), vehicle: saline 122 % of control | endpoint: mean survival time, dose: 100.0 mg/kg/injection, schedule: Q03DX003 (ip), vehicle: saline 96 % of control | [1] 98 % of control | endpoint: mean survival time, dose: 200.0 mg/kg/injection, schedule: Q01DX007 (ip), vehicle: saline 111 % of control | endpoint: mean survival time, dose: 200.0 mg/kg/injection, schedule: Q01DX009 (ip), vehicle: saline 113 % of control | endpoint: mean survival time, dose: 200.0 mg/kg/injection, schedule: Q03DX003 (ip), vehicle: saline 102 % of control | [2] 103 % of control | endpoint: mean survival time, dose: 400.0 mg/kg/injection, schedule: Q01DX007 (ip), vehicle: saline 120 % of control | endpoint: mean survival time, dose: 400.0 mg/kg/injection, schedule: Q01DX009 (ip), vehicle: saline 124 % of control | endpoint: mean survival time, dose: 400.0 mg/kg/injection, schedule: Q03DX003 (ip), vehicle: saline 106 % of control | [3] 106 % of control

Cc1cc([N+](=O)[O-])c2ccccc2[n+]1[O-]
inactive: [4] 100 % of control

O=C(O)CSc1nc(-c2ccccc2)c(-c2ccccc2)n1-c1ccccn1
inactive: [5] 96 % of control and 97 % of control | [6] 91 % of control and 100 % of control | [7] 96 % of control and 102 % of control | [8] 100 % of control and 102 % of control

O=C1/C(=N/Nc2ccccc2)c2cccc3cccc1c23
inactive: endpoint: mean survival time, dose: 100.0 mg/kg/injection, schedule: Q01DX001 (ip), vehicle: saline with Tween-80 97 % of control | endpoint: mean survival time, dose: 200.0 mg/kg/injection, schedule: Q01DX001 (ip), vehicle: saline with Tween-80 100 % of control | endpoint: mean survival time, dose: 400.0 mg/kg/injection, schedule: Q01DX001 (ip), vehicle: saline with Tween-80 106 % of control

O=C(Nc1cccc(C(F)(F)F)c1)c1cccc(C(=O)Nc2cccc(C(F)(F)F)c2)c1
inactive: endpoint: mean survival time, dose: 12.5 mg/kg/injection, schedule: Q01DX009 (ip), vehicle: saline with Tween-80 92 % of control | endpoint: mean survival time, dose: 25.0 mg/kg/injection, schedule: Q01DX009 (ip), vehicle: saline with Tween-80 89 % of control | endpoint: mean survival time, dose: 50.0 mg/kg/injection, schedule: Q01DX009 (ip), vehicle: saline with Tween-80 89 % of control

Cc1ccc(S(=O)(=O)NC(=O)C2C(=O)CC3(CCCCC3)CC2=O)cc1
inactive: endpoint: median survival time, dose: 50.0 mg/kg/injection, schedule: Q01DX009 (ip), vehicle: Klucel (hydroxypropylcellulose) (HPC) 100 % of control | endpoint: median survival time, dose: 100.0 mg/kg/injection, schedule: Q01DX009 (ip), vehicle: Klucel (hydroxypropylcellulose) (HPC) 102 % of control

CCOC(=O)NC(O)C(Cl)(Cl)Cl (stereo unspecified)
inactive: endpoint: mean survival time, dose: 100.0 mg/kg/injection, schedule: Q01DX009 (ip), vehicle: saline with Tween-80 97 % of control | endpoint: mean survival time, dose: 200.0 mg/kg/injection, schedule: Q01DX009 (ip), vehicle: saline with Tween-80 106 % of control | endpoint: mean survival time, dose: 400.0 mg/kg/injection, schedule: Q01DX009 (ip), vehicle: saline with Tween-80 112 % of control

CC(=O)OCC1OC(n2ccc(-n3cncn3)nc2=O)CC1N=[N+]=[N-] (stereo unspecified)
inactive: endpoint: median survival time, dose: 12.5 mg/kg/injection, schedule: Q01DX005 (ip), vehicle: saline with Tween-80 101 % of control | endpoint: median survival time, dose: 25.0 mg/kg/injection, schedule: Q01DX005 (ip), vehicle: saline with Tween-80 104 % of control | endpoint: median survival time, dose: 50.0 mg/kg/injection, schedule: Q01DX005 (ip), vehicle: saline with Tween-80 98 % of control | endpoint: median survival time, dose: 100.0 mg/kg/injection, schedule: Q01DX005 (ip), vehicle: saline with Tween-80 94 % of control | endpoint: median survival time, dose: 200.0 mg/kg/injection, schedule: Q01DX005 (ip), vehicle: saline with Tween-80 93 % of control

CCCCCCCCN(C)S(=O)(=O)CCCC
inactive: endpoint: mean survival time, dose: 6.25 mg/kg/injection, schedule: Q01DX009 (ip), vehicle: water 103 % of control | [5] 95 % of control | [6] 106 % of control | [7] 111 % of control | [8] 103 % of control

O=S(=O)(N/N=C/c1ccccc1)c1ccccc1
inactive: endpoint: mean survival time, dose: 12.5 mg/kg/injection, schedule: Q01DX009 (ip), vehicle: Klucel (hydroxypropylcellulose) (HPC) 97 % of control | endpoint: mean survival time, dose: 25.0 mg/kg/injection, schedule: Q01DX009 (ip), vehicle: Klucel (hydroxypropylcellulose) (HPC) 95 % of control | endpoint: mean survival time, dose: 50.0 mg/kg/injection, schedule: Q01DX009 (ip), vehicle: Klucel (hydroxypropylcellulose) (HPC) 90 % of control | endpoint: mean survival time, dose: 100.0 mg/kg/injection, schedule: Q01DX009 (ip), vehicle: Klucel (hydroxypropylcellulose) (HPC) 94 % of control | endpoint: mean survival time, dose: 200.0 mg/kg/injection, schedule: Q01DX009 (ip), vehicle: Klucel (hydroxypropylcellulose) (HPC) 92 % of control | endpoint: mean survival time, dose: 400.0 mg/kg/injection, schedule: Q01DX009 (ip), vehicle: Klucel (hydroxypropylcellulose) (HPC) 97 % of control

CCC(C)(C)N
inactive: [1] 100 % of control | [2] 106 % of control | [3] 103 % of control

C[n+]1c2ccccc2cc2ccccc21
inactive: endpoint: mean survival time, dose: 12.0 mg/kg/injection, schedule: Q04DX003 (ip), vehicle: saline 102 % of control | endpoint: mean survival time, dose: 25.0 mg/kg/injection, schedule: Q04DX003 (ip), vehicle: saline 98 % of control

O=C(COc1ccc(Cl)cc1Cl)Nc1ccccc1F
inactive: [4] 100 % of control | endpoint: mean survival time, dose: 200.0 mg/kg/injection, schedule: Q04DX003 (ip), vehicle: saline with Tween-80 94 % of control | endpoint: mean survival time, dose: 400.0 mg/kg/injection, schedule: Q04DX003 (ip), vehicle: saline with Tween-80 94 % of control

COc1cc2ccc(/C=C\[N+](=O)[O-])cc2cc1OC
inactive: [5] 94 % of control | [6] 102 % of control | [7] 96 % of control

C(CC1CO1)C1CO1 (stereo unspecified)
inactive: endpoint: mean survival time, dose: 2.5 mg/kg/injection, schedule: Q01DX009 (ip), vehicle: Klucel (hydroxypropylcellulose) (HPC) 98 % of control and 104 % of control | endpoint: mean survival time, dose: 5.0 mg/kg/injection, schedule: Q01DX009 (ip), vehicle: Klucel (hydroxypropylcellulose) (HPC) 98 % of control and 104 % of control | endpoint: mean survival time, dose: 10.0 mg/kg/injection, schedule: Q01DX009 (ip), vehicle: Klucel (hydroxypropylcellulose) (HPC) 92 % of control and 96 % of control | endpoint: mean survival time, dose: 20.0 mg/kg/injection, schedule: Q01DX009 (ip), vehicle: Klucel (hydroxypropylcellulose) (HPC) 98 % of control and 104 % of control | endpoint: mean survival time, dose: 40.0 mg/kg/injection, schedule: Q01DX009 (ip), vehicle: Klucel (hydroxypropylcellulose) (HPC) 95 % of control and 98 % of control | endpoint: mean survival time, dose: 49.5 mg/kg/injection, schedule: Q01DX009 (ip), vehicle: Klucel (hydroxypropylcellulose) (HPC) 122 % of control | endpoint: mean survival time, dose: 80.0 mg/kg/injection, schedule: Q01DX009 (ip), vehicle: Klucel (hydroxypropylcellulose) (HPC) 96 % of control and 98 % of control

ONC(CC(O)(NO)NO)c1ccccc1 (stereo unspecified)
inactive: endpoint: mean survival time, dose: 100.0 mg/kg/injection, schedule: Q01DX001 (ip), vehicle: saline 107 % of control | endpoint: mean survival time, dose: 200.0 mg/kg/injection, schedule: Q01DX001 (ip), vehicle: saline 107 % of control | endpoint: mean survival time, dose: 400.0 mg/kg/injection, schedule: Q01DX001 (ip), vehicle: saline 108 % of control

Oc1ccccc1/C=N/NC(=S)NC1CC2C=CC1C2 (stereo unspecified)
inactive: endpoint: mean survival time, dose: 12.5 mg/kg/injection, schedule: Q01DX009 (ip), vehicle: olive oil, sesame oil, peanut oil 98 % of control | endpoint: mean survival time, dose: 25.0 mg/kg/injection, schedule: Q01DX009 (ip), vehicle: olive oil, sesame oil, peanut oil 97 % of control | endpoint: mean survival time, dose: 50.0 mg/kg/injection, schedule: Q01DX009 (ip), vehicle: olive oil, sesame oil, peanut oil 98 % of control | endpoint: mean survival time, dose: 100.0 mg/kg/injection, schedule: Q01DX009 (ip), vehicle: olive oil, sesame oil, peanut oil 94 % of control | endpoint: mean survival time, dose: 200.0 mg/kg/injection, schedule: Q01DX009 (ip), vehicle: olive oil, sesame oil, peanut oil 98 % of control | endpoint: mean survival time, dose: 400.0 mg/kg/injection, schedule: Q01DX009 (ip), vehicle: olive oil, sesame oil, peanut oil 100 % of control

Reference: PubChem BioAssay AID256 (DTP/NCI, 2004)
